From PubChem BioAssay (NCI) come the findings set out here.

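Results reflect a 48-hour exposure of cells in 96-well plates to compound at five concentrations. GI50 = concentration required for 50% inhibition of growth. The concentration for full growth arrest is given as TGI.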

Test systems include SF-295 CNS; SF-539 CNS; SK-MEL-2 melanoma; RPMI-8226 leukemia; A498 renal; HCT-15 colon; HL-60(TB) leukemia; A549 NSCLC; SNB-75 CNS; NCI-H522 lung.
What all share (test): DTP human tumour cell line panel, 48 h

What is called TGI is the concentration giving total growth inhibition. For `CC1=NN(c2ccccc2)C(=O)C1N=Nc1ccc(Br)cc1C` (stereo not drawn), the TGI with SF-295 CNS, with SF-539 CNS, in the assay on SK-MEL-2 melanoma, with RPMI-8226 leukemia, in the assay on A498 renal and in the assay on HCT-15 colon was above 100 µM throughout. In addition, the TGI in the assay with HL-60(TB) leukemia was above 100 µM; in the assay with A549 NSCLC, above 100 µM; in the assay on SNB-75 CNS it was 48.3 µM.
Usually GI50 stands for the concentration at which growth is held to half of that of the control. In the case of `Cc1cc(S(=O)(=O)Nc2nc3ccccc3s2)c(SCc2ccccc2)cc1Cl`, the GI50 in the assay with SF-295 CNS is 11 µM; in the assay on SF-539 CNS it was 16.5 µM; in the assay on SK-MEL-2 melanoma, 37.2 µM; with NCI-H522 lung, 31.5 µM; with RPMI-8226 leukemia, 9.25 µM; with A498 renal, 12.9 µM. Besides, the GI50 with HCT-15 colon is 15.2 µM; in the assay on HL-60(TB) leukemia, 17.3 µM; in the assay on A549 NSCLC, 13.9 µM. Further, the concentration for total growth inhibition (TGI) was 32.4 µM with SF-295 CNS; 32.7 µM in the assay with SF-539 CNS; above 100 µM in the assay with SK-MEL-2 melanoma; above 100 µM in the assay with NCI-H522 lung; 37.2 µM in the assay with RPMI-8226 leukemia; 28.6 µM in the assay on A498 renal. The total growth inhibition concentration (TGI) amounted to 30.8 µM in the assay with HCT-15 colon, 45.4 µM with HL-60(TB) leukemia and 31.8 µM in the assay with A549 NSCLC.
`O=Cc1cc2sc(C=O)cc2s1`: the concentration for total growth inhibition (TGI) in the assay on SF-295 CNS is above 100 µM; in the assay on SF-539 CNS, above 100 µM; with NCI-H522 lung it was above 100 µM; in the assay with RPMI-8226 leukemia it was above 100 µM; in the assay on A498 renal, 34.3 µM; in the assay on HCT-15 colon, above 100 µM. Moreover, the TGI in the assay on HL-60(TB) leukemia, in the assay on A549 NSCLC and in the assay with SNB-75 CNS was above 100 µM throughout.
Take `COC1C[C@H](O[C@@H]2C[C@H](O[C@@H]3C[C@H](O[C@@H]4C(=O)c5c(cc6cc(O[C@H]7C[C@@H](O[C@H]8C[C@@H](O)[C@H](O)C(C)O8)[C@H](O)C(C)O7)c(C)c(O)c6c5O)C[C@H]4C(OC)C(=O)[C@@H](O)[C@@H](C)O)OC(C)[C@H]3O)OC(C)[C@@H]2O)OC(C)[C@@H]1O` (stereo partly drawn): the GI50 in the assay on SF-295 CNS was 0.104 µM; in the assay on SF-539 CNS it was 0.0736 µM; in the assay on SK-MEL-2 melanoma, 0.068 µM; with NCI-H522 lung it was 0.0696 µM; in the assay on A498 renal, 0.0395 µM; in the assay on HCT-15 colon it was 2.19 µM. Further, the GI50 with HL-60(TB) leukemia was 0.362 µM; with A549 NSCLC it was 0.185 µM; in the assay on SNB-75 CNS it was 0.0622 µM. The TGI was above 32.5 µM in the assay on SF-295 CNS; 0.316 µM in the assay on SF-539 CNS; 0.165 µM with SK-MEL-2 melanoma; 0.265 µM in the assay with NCI-H522 lung; 0.108 µM with A498 renal; above 32.5 µM in the assay with HCT-15 colon. For the same compound, the concentration for total growth inhibition (TGI) with HL-60(TB) leukemia was above 32.5 µM; with A549 NSCLC, above 32.5 µM; with SNB-75 CNS, 0.442 µM.
For `C/C(COc1ccccc1)=N\NC(N)=S`, the total growth inhibition concentration (TGI) in the assay on SF-295 CNS, in the assay on SF-539 CNS, with SK-MEL-2 melanoma, in the assay with RPMI-8226 leukemia, in the assay on A498 renal and with HCT-15 colon was above 100 µM throughout. The total growth inhibition concentration (TGI) with HL-60(TB) leukemia, in the assay on A549 NSCLC and in the assay with SNB-75 CNS was above 100 µM each time.
Turning to `Cc1cc(NCCCCCCCCNc2cc(C)nc3cc(N(C)C)ccc23)c2ccc(N(C)C)cc2n1`, the total growth inhibition concentration (TGI) with SF-295 CNS was 30.2 µM; in the assay on NCI-H522 lung it was 12.9 µM; in the assay on RPMI-8226 leukemia, 17.2 µM; in the assay on A498 renal, 42.6 µM; with HCT-15 colon, above 100 µM; in the assay with HL-60(TB) leukemia it was 6.11 µM. This compound displayed a TGI with A549 NSCLC of 21.8 µM.
On to `COc1ccc(C2[C@@H](Cl)C(=O)N2c2ccc(OC)cc2)cc1` (stereo partly drawn), for which the TGI in the assay with SF-295 CNS is above 100 µM; with SF-539 CNS it was 49.8 µM; with SK-MEL-2 melanoma, above 100 µM; in the assay with NCI-H522 lung it was above 100 µM; with RPMI-8226 leukemia, above 100 µM; in the assay on A498 renal it was above 100 µM. Further, the values for the TGI in the assay with HL-60(TB) leukemia, with A549 NSCLC and in the assay with SNB-75 CNS were above 100 µM, above 100 µM and 64.1 µM, respectively.
On to `Cc1cc(C2CC(O)C(CO)O2)c(Br)cc1Br` (stereo not drawn), for which the GI50 with SF-295 CNS was above 100 µM; in the assay with SF-539 CNS, above 100 µM; in the assay with SK-MEL-2 melanoma, above 100 µM; with NCI-H522 lung, above 100 µM; with RPMI-8226 leukemia, 85.8 µM; with A498 renal, 36.7 µM. Moreover, the GI50 was above 100 µM with HCT-15 colon, 73.4 µM with HL-60(TB) leukemia and above 100 µM with A549 NSCLC. Moreover, the TGI in the assay on SF-295 CNS, with SF-539 CNS, with SK-MEL-2 melanoma, with NCI-H522 lung, in the assay with RPMI-8226 leukemia and in the assay on A498 renal was above 100 µM each time. Moreover, the total growth inhibition concentration (TGI) in the assay on HCT-15 colon, in the assay on HL-60(TB) leukemia and in the assay with A549 NSCLC was above 100 µM throughout.
Consider `O=C(Nc1cccc(Cl)c1)Nc1cc(C(F)(F)F)ccc1Cl`, for which the GI50 with SF-539 CNS is 3.18 µM; with SK-MEL-2 melanoma, 2.24 µM; in the assay with NCI-H522 lung, 2.14 µM; in the assay on RPMI-8226 leukemia it was 2.33 µM; with A498 renal, 2.16 µM; with HCT-15 colon it was 2.66 µM. In addition, the GI50 in the assay on HL-60(TB) leukemia is 3.02 µM; with A549 NSCLC it was 2.72 µM; in the assay on SNB-75 CNS, 2.29 µM. Moreover, the concentration for total growth inhibition (TGI) was 11.4 µM in the assay with SF-539 CNS; 5.4 µM in the assay on SK-MEL-2 melanoma; 7.7 µM with NCI-H522 lung; 7.13 µM in the assay with RPMI-8226 leukemia; 6.36 µM in the assay on A498 renal; 11.5 µM in the assay with HCT-15 colon. Moreover, the TGI in the assay on HL-60(TB) leukemia is 31.3 µM; in the assay with A549 NSCLC, 8.98 µM; in the assay on SNB-75 CNS it was 6.48 µM.
As to `CC(C)(C)c1cc([Si](C)(C)C)c(C#N)c([Si](C)(C)C)c1`, the total growth inhibition concentration (TGI) with SF-295 CNS, in the assay with SF-539 CNS, in the assay with SK-MEL-2 melanoma, with NCI-H522 lung, in the assay with A498 renal and in the assay on HCT-15 colon was above 100 µM in each case. Besides, the values for the TGI in the assay with HL-60(TB) leukemia, with A549 NSCLC and in the assay with SNB-75 CNS were 44.2 µM, above 100 µM and above 100 µM, respectively.
Regarding `N#Cc1cc([N+](=O)[O-])ccc1NC(=O)C(=O)Nn1c(=S)[nH]c2ccccc2c1=O`, the total growth inhibition concentration (TGI) in the assay with SF-295 CNS, with SF-539 CNS, in the assay on NCI-H522 lung, with RPMI-8226 leukemia, in the assay on A498 renal and in the assay with HCT-15 colon was above 100 µM each time. For the same compound, the total growth inhibition concentration (TGI) in the assay on HL-60(TB) leukemia, with A549 NSCLC and in the assay with SNB-75 CNS was above 100 µM each time.
